By IC50 is commonly meant the concentration that gives 50% inhibition.

For the experiment, the target named is Mcl-1 protein (UniProtKB primary accession number: Q07820) (Homo sapiens, UniProt Q07820). The experiment can be described thus: Inhibition of Mcl-1 by fluorescence polarisation, Method 1. As to conditions: for IC50: fluorescence polarisation, Method 1, or Method 2, read-out: IC50 (M) Mcl-1 FP; for percentage fluorescence polarisation inhibition, Mcl-1 FP: partial inhibitors, @ 10 uM test compound. The experiment is classed as binding. The procedure, abridged: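 Compounds were tested as 11-point serial dilutions at 5% final DMSO against 5 nM Mcl-1 with 1 nM fluorescein-labelled ligand in 10 mM HEPES, 150 mM NaCl, 0.05% Tween 20, pH 7.4. Relative binding potency was read by fluorescence polarisation.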
(In general: In fluorescence polarisation assays a small probe gives low polarisation when free and higher when bound to something large.)

Sequence of Mcl-1 protein (Q07820 whole entry): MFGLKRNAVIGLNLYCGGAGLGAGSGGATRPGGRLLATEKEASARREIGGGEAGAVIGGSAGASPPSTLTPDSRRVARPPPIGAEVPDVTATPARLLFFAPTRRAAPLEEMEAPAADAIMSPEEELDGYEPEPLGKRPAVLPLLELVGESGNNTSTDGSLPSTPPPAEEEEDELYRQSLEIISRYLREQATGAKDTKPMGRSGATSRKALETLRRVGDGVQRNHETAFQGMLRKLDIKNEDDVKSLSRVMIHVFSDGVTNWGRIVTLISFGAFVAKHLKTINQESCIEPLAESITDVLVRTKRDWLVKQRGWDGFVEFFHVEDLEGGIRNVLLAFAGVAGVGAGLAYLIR

As to `CCc1sc2ncnc(OC(Cc3ccccc3)C(=O)O)c2c1-c1cc(OCCN2CCN(C)CC2)ccc1C` [Example 440, (2R)-2-[(6-ethyl-(5Sa)-5-{2-methyl-5-[2-(4-methylpiperazin-1-yl)ethoxy]phenyl}thieno[2,3-d]pyrimidin-4-yl)oxy]-3-phenylpropanoic acid and (2S)-2-[(6-ethyl-(5Ra)-5-{2-methyl-5-[2-(4-methylpiperazin-1-yl)ethoxy]phenyl}thieno[2,3-d]pyrimidin-4-yl)oxy]-3-phenylpropanoic acid], the IC50 was determined as 3e-07 M.
Consider `CCc1sc2ncnc(OC(Cc3ccccc3)C(=O)O)c2c1-c1cc2c(c(Cl)c1C)OCC(=O)N2` [Example 441, (2R)-2-{[(5Sa)-5-(8-chloro-7-methyl-3-oxo-3,4-dihydro-2H-1,4-benzoxazin-6-yl)-6-ethylthieno[2,3-d]pyrimidin-4-yl]oxy}-3-phenylpropanoic acid], for which the IC50 turned out to be 2.7e-08 M.
On to `CCc1sc2ncnc(O[C@H](Cc3ccccc3)C(=O)O)c2c1-c1cc2cc(CN(C)C)oc2c(Cl)c1C` [Example 442, (2R)-2-[((5Sa)-5-{7-chloro-2-[(dimethylamino)methyl]-6-methyl-1-benzofuran-5-yl}-6-ethylthieno[2,3-d]pyrimidin-4-yl)oxy]-3-phenylpropanoic acid], for which the IC50 amounted to 1.1e-07 M.
On the same count and under the same terms, the value for `CCc1sc2ncnc(OC(Cc3ccccc3)C(=O)O)c2c1-c1cc2ccoc2c(Cl)c1C` [Example 443, (2R)-2-{[(5Sa)-5-(7-chloro-6-methyl-1-benzofuran-5-yl)-6-ethylthieno[2,3-d]pyrimidin-4-yl]oxy}-3-phenylpropanoic acid] was 1.8e-08 M.
For `CCc1sc2ncnc(OC(Cc3ccccc3)C(=O)O)c2c1-c1cc2nc(C)oc2c(Cl)c1C` [Example 444, (2R)-2-{[(5Sa)-5-(7-chloro-2,6-dimethyl-1,3-benzoxazol-5-yl)-6-ethylthieno[2,3-d]pyrimidin-4-yl]oxy}-3-phenylpropanoic acid], the IC50 amounted to 1.2e-08 M.
Turning to `CCc1sc2ncnc(OC(Cc3ccccc3)C(=O)O)c2c1-c1ccc(O)cc1C` [Example 447, (2R)-2-{[6-ethyl-(5Sa)-5-(4-hydroxy-2-methylphenyl)thieno[2,3-d]pyrimidin-4-yl]oxy}-3-phenylpropanoic acid], the IC50 was 6.8e-08 M.
Still for that read-out and setting: then `CCc1sc2ncnc(OC(Cc3ccccc3)C(=O)O)c2c1-c1ccc(O)cc1C` [Example 448, (2R)-2-{[6-ethyl-(5Ra)-5-(4-hydroxy-2-methylphenyl)thieno[2,3-d]pyrimidin-4-yl]oxy}-3-phenylpropanoic acid], with 4.4e-07 M.
As to `CCc1sc2ncnc(OC(Cc3ccccc3)C(=O)O)c2c1-c1cccc(Cl)c1C` [Example 450, (2R)-2-{[(5Sa)-5-(3-chloro-2-methylphenyl)-6-ethylthieno[2,3-d]pyrimidin-4-yl]oxy}-3-phenylpropanoic acid], the IC50 amounted to 2.6e-08 M.
`CCc1sc2ncnc(OC(Cc3ccccc3)C(=O)O)c2c1-c1cccc(Cl)c1C` [Example 451, (2R)-2-{[(5Ra)-5-(3-chloro-2-methylphenyl)-6-ethylthieno[2,3-d]pyrimidin-4-yl]oxy}-3-phenylpropanoic acid]: the IC50 was determined as 5.8e-07 M.
`CCc1sc2ncnc(OC(Cc3ccccc3)C(=O)O)c2c1-c1cccc(O)c1C` [Example 452, (2R)-2-{[6-ethyl-(5Sa)-5-(3-hydroxy-2-methylphenyl)thieno[2,3-d]pyrimidin-4-yl]oxy}-3-phenylpropanoic acid and (2S)-2-{[6-ethyl-(5Ra)-5-(3-hydroxy-2-methylphenyl)thieno[2,3-d]pyrimidin-4-yl]oxy}-3-phenylpropanoic acid]: the concentration for half-maximal inhibition (IC50) was found to be 3e-07 M.
For the molecule `CCc1sc2ncnc(OC(Cc3ccccc3OCC(F)(F)F)C(=O)O)c2c1-c1ccc(OCCN2CCN(C)CC2)c(Cl)c1C` [Example 454, (2R)-2-[((5Sa)-5-{3-chloro-2-methyl-4-[2-(4-methylpiperazin-1-yl)ethoxy]phenyl}-6-ethylthieno[2,3-d]pyrimidin-4-yl)oxy]-3-[2-(2,2,2-trifluoroethoxy)phenyl]propanoic acid], the IC50 stood at 1.2e-08 M.
On to `CCc1sc2ncnc(OC(Cc3ccccc3OCCOC)C(=O)O)c2c1-c1ccc(OCCN2CCN(C)CC2)c(Cl)c1C` [Example 457, (2R)-2-[((5Sa)-5-{3-chloro-2-methyl-4-[2-(4-methylpiperazin-1-yl)ethoxy]phenyl}-6-ethylthieno[2,3-d]pyrimidin-4-yl)oxy]-3-[2-(2-methoxyethoxy)phenyl]propanoic acid], for which the concentration for half-maximal inhibition (IC50) was determined as 3.4e-08 M.
As to `CCc1sc2ncnc(O[C@@H](Cc3cccc4ccoc34)C(=O)O)c2c1-c1ccc(OCCN2CCN(C)CC2)c(Cl)c1C` [Example 462, (2S)-3-(1-benzofuran-7-yl)-2-[((5Ra)-5-{3-chloro-2-methyl-4-[2-(4-methylpiperazin-1-yl)ethoxy]phenyl}-6-ethylthieno[2,3-d]pyrimidin-4-yl)oxy]propanoic acid], the IC50 was found to be 3.7e-05 M.
For `CCc1sc2ncnc(OC(Cc3ccccc3F)C(=O)O)c2c1-c1ccc(OCCN2CCN(C)CC2)c(Cl)c1C` [Example 464, (2S)-2-[((5Ra)-5-{3-chloro-2-methyl-4-[2-(4-methylpiperazin-1-yl)ethoxy]phenyl}-6-ethylthieno[2,3-d]pyrimidin-4-yl)oxy]-3-(2-fluorophenyl)propanoic acid], the IC50 came to 3.9e-07 M.
With `CC#Cc1sc2ncnc(O[C@H](Cc3ccccc3OC)C(=O)O)c2c1-c1cc(N2CCN(C)CC2)c(OC)c(Cl)c1C` [Example 472, (2R)-2-({(5Ra)-5-[3-chloro-4-methoxy-2-methyl-5-(4-methylpiperazin-1-yl)phenyl]-6-(prop-1-yn-1-yl)thieno[2,3-d]pyrimidin-4-yl}oxy)-3-(2-methoxyphenyl)propanoic acid], the “percentage fluorescence polarisation inhibition, Mcl-1 FP” value came out at 13.05% @ 10 uM.
Regarding `CC#Cc1sc2ncnc(OC(Cc3ccccc3OC)C(=O)O)c2c1-c1cc(N2CCN(C)CC2)c(OC)c(Cl)c1C` [Example 473, (2R)-2-({(5Sa)-5-[3-chloro-4-methoxy-2-methyl-5-(4-methylpiperazin-1-yl)phenyl]-6-(prop-1-yn-1-yl)thieno[2,3-d]pyrimidin-4-yl}oxy)-3-(2-methoxyphenyl)propanoic acid], the 50% inhibitory concentration (IC50) worked out at 5e-08 M.
Still for that read-out and setting: the value for `CC#Cc1sc2ncnc(OC(Cc3ccccc3OC)C(=O)O)c2c1-c1cc(C)c(OCCN2CCN(C)CC2)c(Cl)c1C` [Example 474, (2R)-2-{[(5Ra)-5-{3-chloro-2,5-dimethyl-4-[2-(4-methylpiperazin-1-yl)ethoxy]phenyl}-6-(prop-1-yn-1-yl)thieno[2,3-d]pyrimidin-4-yl]oxy}-3-(2-methoxyphenyl)propanoic acid] was 5.5e-07 M; that for `CC#Cc1sc2ncnc(OC(Cc3ccccc3OC)C(=O)O)c2c1-c1ccc(O)c(Cl)c1C` [Example 480, (2R)-2-{[(5Sa)-5-(3-chloro-4-hydroxy-2-methylphenyl)-6-(prop-1-yn-1-yl)thieno[2,3-d]pyrimidin-4-yl]oxy}-3-(2-methoxyphenyl)propanoic acid] was 2.8e-08 M; that for `CC#Cc1sc2ncnc(O[C@H](Cc3ccccc3OCc3ccnc(-c4ccccc4OC)n3)C(=O)O)c2c1-c1ccc(OCCN2CCN(C)CC2)c(Cl)c1C` [Example 482, (2R)-2-{[(5Sa)-5-{3-chloro-2-methyl-4-[2-(4-methylpiperazin-1-yl)ethoxy]phenyl}-6-(prop-1-yn-1-yl)thieno[2,3-d]pyrimidin-4-yl]oxy}-3-(2-{[2-(2-methoxyphenyl)pyrimidin-4-yl]methoxy}phenyl)propanoic acid] was 7.4e-09 M.
The same measure, in the same setting: the value for `CC#Cc1sc2ncnc(OC(Cc3ccccc3OCc3ccnn3CCCC)C(=O)O)c2c1-c1ccc(OCCN2CCN(C)CC2)c(Cl)c1C` [Example 490, (2R)-3-{2-[(1-butyl-1H-pyrazol-5-yl)methoxy]phenyl}-2-{[(5Sa)-5-{3-chloro-2-methyl-4-[2-(4-methylpiperazin-1-yl)ethoxy]phenyl}-6-(prop-1-yn-1-yl)thieno[2,3-d]pyrimidin-4-yl]oxy}propanoic acid] was 3e-09 M.
As to `CC#Cc1sc2ncnc(O[C@@H](Cc3cccc4occc34)C(=O)O)c2c1-c1ccc(OCCN2CCN(C)CC2)c(Cl)c1C` [Example 491, (2S)-3-(1-benzofuran-4-yl)-2-{[(5Ra)-5-{3-chloro-2-methyl-4-[2-(4-methylpiperazin-1-yl)ethoxy]phenyl}-6-(prop-1-yn-1-yl)thieno[2,3-d]pyrimidin-4-yl]oxy}propanoic acid], the “percentage fluorescence polarisation inhibition, Mcl-1 FP” value was found to be 28.3% @ 10 uM.
As to `CC/C=C\c1sc2ncnc(O[C@H](Cc3ccccc3)C(=O)O)c2c1-c1ccc(OCCN2CCN(C)CC2)c(Cl)c1C` [Example 493, (2R)-2-[(6-[(1Z)-but-1-en-1-yl]-(5Sa)-5-{3-chloro-2-methyl-4-[2-(4-methylpiperazin-1-yl)ethoxy]phenyl}thieno[2,3-d]pyrimidin-4-yl)oxy]-3-phenylpropanoic acid], the IC50 was determined as 5e-09 M.
On to `CC(C)=Cc1sc2ncnc(OC(Cc3ccccc3)C(=O)O)c2c1-c1ccc(OCCN2CCN(C)CC2)c(Cl)c1C` [Example 494, (2R)-2-{[(5Sa)-5-{3-chloro-2-methyl-4-[2-(4-methylpiperazin-1-yl)ethoxy]phenyl}-6-(2-methylprop-1-en-1-yl)thieno[2,3-d]pyrimidin-4-yl]oxy}-3-phenylpropanoic acid], for which the IC50 is 4.4e-08 M.
Take `Cc1c(-c2c(-c3cc4ccccc4o3)sc3ncnc(OC(Cc4ccccc4)C(=O)O)c23)ccc(OCCN2CCN(C)CC2)c1Cl` [Example 496, (2R)-2-{[6-(1-benzofuran-2-yl)-(5Sa)-5-{3-chloro-2-methyl-4-[2-(4-methylpiperazin-1-yl)ethoxy]phenyl}thieno[2,3-d]pyrimidin-4-yl]oxy}-3-phenylpropanoic acid]: the half-inhibitory concentration (IC50) turned out to be 2e-07 M.
Same read-out and setting: the value for `Cc1c(-c2c(-c3ccc(F)cc3)sc3ncnc(OC(Cc4ccccc4)C(=O)O)c23)ccc(OCCN2CCN(C)CC2)c1Cl` [Example 498, (2R)-2-{[(5Sa)-5-{3-chloro-2-methyl-4-[2-(4-methylpiperazin-1-yl)ethoxy]phenyl}-6-(4-fluorophenyl)thieno[2,3-d]pyrimidin-4-yl]oxy}-3-phenylpropanoic acid] was 7.4e-08 M.
